The target in one series is tyrosine kinase FGFR4 (Homo sapiens, UniProt P22455). Nature of the series: Kinase assay (mobility shift assay), FGFR4. It is filed as biochemical. Conditions: compound and enzyme incubated for 60 mins. The protocol:
(§1) The effect of the compounds of the present invention on the activity of tyrosine kinase FGFR4 was evaluated with in vitro kinase detection experiment. The mobility shift assay was used in the experiment, and a fluorescently labeled polypeptide was used as the substrate, the substrate was transformed into a product under the action of the enzyme in the reaction system, and its charge has also changed accordingly. This method can use the difference between the charge of the substrate and the product to separate them, and then detect them separately.
(§2) DMSO solution of compound (300 μM) was diluted to a 100-fold final concentration of DMSO solution in a 384-well plate, 3-fold dilution, 250 nL of the compound with 100-fold final concentration was transferred to the target plate OptiPlate-384F by a dispenser Echo 550. The final concentration of the compound were 3000 nM, 1000 nM, 333.3 nM, 111.1 nM, 37.04 nM, 12.35 nM, 4.115 nM, 1.372 nM, 0.4572 nM, 0.1524 nM, the compound and the enzyme were incubated for 60 mins,
(§3) Prepared 1× kinase buffer, used the 1× kinase buffer to prepare 2.5 fold final concentration of kinase solution, 10 μL of 2.5 fold final concentration kinase solution was added to the compound well and the positive control well respectively, and 10 μL of 1× kinase buffer was added to the negative control well. After centrifugation, the reaction plate was shaken and mixed and incubated at room temperature for 60 mins, a mixture of 25/15 fold final concentration of adenosine triphosphate (ATP) and kinase substrate 22 was prepared with 1× kinase buffer. 15 μL of 25/15 fold final concentration of ATP and substrate mixed solution was added to start the reaction, 384-well plate was centrifuged, mixed, and then incubated at room temperature for 30 minutes, 30 μL of the stop detection solution was added to stop the kinase reaction, and the conversion rate was readed with Caliper EZ Reader after centrifugation and mixing;
(§4) wherein: Conversion %_sample was the conversion rate of the sample; Conversion %_min was the average value of the negative control well, which represent the conversion rate of the well without enzyme activity, Conversion %_max was the average value of the positive control well, which represent the conversion rate of the well without compound inhibition.
(§5) Take the log value of the concentration as the X axis, the percentage inhibition rate as the Y axis, and use GraphPad Prism's log(inhibitor) vs. response-Variable slope (four parameters) of the analysis software to fit the dose-response curve to obtain the IC50 value of each compound on the enzyme. The formula is as follows: Y=Bottom+(Top−Bottom)/(1+10^((Log IC50−X)*HillSlope)).

Another series has as its target FGFR1 (Homo sapiens, UniProt P11362). Nature of the series: Kinase assay (mobility shift assay), FGFR1. In kind it is biochemical. To be noted: compound and enzyme incubated for 60 mins. The protocol: [The source words this procedure for another target and reports this target under the same test.] as §1, §2, §3, §4, §5
Series [1] relates to human liver cancer cells Hep3B cells. Nature of the series: Cell proliferation assay (CellTiter-Glo). It is filed as cell-based. Conditions: 96 hrs incubation, CTG detection, read-out: IC50(nM) of the compound on Hep3B cells. The source says:
In vitro cell assay was used to measure the effects of the compound of the present invention on the proliferation of human liver cancer cells Hep3B cells. The CELL TITER-GLO (CTG) luminescent was used as detection method in the assay, which can detect the number of living cells by quantitatively determining ATP. Because ATP participates in a variety of enzymatic reactions in organisms, it is an indicator of the metabolism of living cells, and its content directly reflects the number and cell state of cells, during the experiment, add CellTiter-Glo™ reagent to the cell culture medium to measure the luminescence, the luminescence value is directly proportional to the amount of ATP, and ATP is positively related to the number of living cells, so cell viability can be inspected by detecting the ATP content.
Take a bottle of Hep3B cells in logarithmic growth phase, the cells were counted after digestion and resuspension, and then were adjusted the cell density and seeded at 180 μL per well (1500 cells/well) into a 96-well plate, the plate was incubated for 24 hrs in 37° C. 5% CO2 incubator;
The 600 μM test substance dissolved in DMSO was diluted with DMSO in a 1:3 ratio to a 200-fold final concentration solution, then the cell culture medium was diluted 20 fold (10×), and 20 μL of the compound solution was added to the 96 wells containing cells in the plate, the final concentration of the compound from high to low was 3000 nM, 1000 nM, 333.3 nM, 111.1 nM, 37.04 nM, 12.35 nM, 4.115 nM, 1.372 nM, 0.4572 nM, and the well plate was placed in a 37° C. 5% CO2 incubator for 96 hrs;
After 96 hrs of incubation, 60 μL of CellTiter-Glo® Luminescent Cell Viability Assay solution was added to each well, gently shaked for 2 mins, continued incubating for 10 mins at room temperature, and the luminescence value of each well on the multifunctional microplate reader was readed.
Calculated the inhibition rate base on the luminous value,
Inhibition rate %=(blank group value−administration group value)/(blank group value−apoptosis group value)*100
The log value of the concentration was used as the X axis, and the percentage inhibition rate was used as the Y axis. Log (inhibitor) vs. response-Variable slope (four parameters) of GraphPad Prism's was used to fit the dose-response curve, and the IC50 of the compound to inhibit cell proliferation was calculated.

In series [2] the test system is human hepatocarcinoma cells Hep3B. Nature of the series: Xenograft tumor model. It is filed as in vivo. To be noted: for inhibitory rate on tumor volume growth of Hep3B (TGI): BID×14; for inhibitory rate of tumor weight growth (TGI): BID×14, tumor weight after the last dose; for body weight (routine determination of toxicity): during the entire experiment, at the treatment doses. As for the experimental part:
BALB/c nu/nu female mice were inoculated subcutaneously in the right anterior scapula of 5×10^6 human hepatocarcinoma cells Hep3B, and the volume ratio of cell suspension to matrigel was 1:1 (0.2/mL/mouse). The mice were grouped according to tumor size until the average tumor volume was 158 mm^3. The treatment group was given a test compound solution prepared with an appropriate solvent, and the solvent control group was given a blank solvent. During the treatment, the tumor volume was measured twice a week, and the tumor weight was measured after the last dose to determine the compound activity. The tumor growth inhibition rate (%, TGI) was calculated by comparing the tumor volume and weight of the treatment group and the solvent control group. Body weight measurement, as a routine determination of toxicity, has the same frequency as the tumor volume measurement.

12 molecules from patent US20220002307A1, “FGFR4 INHIBITOR AND USE THEREOF” (BETTA PHARMACEUTICALS CO., LTD, priority 2018, published 2022) can be followed below.

The IC50 is the concentration that gives 50% inhibition.

Where only a bound is given, the exact number is not on record here.

FGFR1, sequence (P11362 22-822): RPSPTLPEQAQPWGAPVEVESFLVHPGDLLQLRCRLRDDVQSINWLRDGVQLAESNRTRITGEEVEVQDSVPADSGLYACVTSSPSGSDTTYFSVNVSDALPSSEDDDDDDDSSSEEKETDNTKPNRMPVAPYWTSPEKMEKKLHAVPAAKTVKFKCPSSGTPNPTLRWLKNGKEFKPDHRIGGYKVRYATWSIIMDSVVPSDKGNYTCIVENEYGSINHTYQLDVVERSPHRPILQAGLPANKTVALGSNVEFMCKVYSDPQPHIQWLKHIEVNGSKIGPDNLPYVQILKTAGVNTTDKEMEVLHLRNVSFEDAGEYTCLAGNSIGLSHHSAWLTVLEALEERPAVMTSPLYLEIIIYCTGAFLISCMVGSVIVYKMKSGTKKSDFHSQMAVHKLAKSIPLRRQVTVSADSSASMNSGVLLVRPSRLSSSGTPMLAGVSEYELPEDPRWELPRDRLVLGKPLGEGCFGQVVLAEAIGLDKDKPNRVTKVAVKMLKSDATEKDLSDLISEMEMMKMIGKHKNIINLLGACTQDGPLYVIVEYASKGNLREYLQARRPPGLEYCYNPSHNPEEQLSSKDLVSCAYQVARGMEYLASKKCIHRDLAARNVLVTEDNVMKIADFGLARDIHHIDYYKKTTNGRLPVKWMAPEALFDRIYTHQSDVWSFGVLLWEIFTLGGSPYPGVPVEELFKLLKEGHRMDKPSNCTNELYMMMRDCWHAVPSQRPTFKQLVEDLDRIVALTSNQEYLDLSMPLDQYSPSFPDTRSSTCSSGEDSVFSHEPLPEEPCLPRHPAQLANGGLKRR
tyrosine kinase FGFR4, sequence (P22455 22-802): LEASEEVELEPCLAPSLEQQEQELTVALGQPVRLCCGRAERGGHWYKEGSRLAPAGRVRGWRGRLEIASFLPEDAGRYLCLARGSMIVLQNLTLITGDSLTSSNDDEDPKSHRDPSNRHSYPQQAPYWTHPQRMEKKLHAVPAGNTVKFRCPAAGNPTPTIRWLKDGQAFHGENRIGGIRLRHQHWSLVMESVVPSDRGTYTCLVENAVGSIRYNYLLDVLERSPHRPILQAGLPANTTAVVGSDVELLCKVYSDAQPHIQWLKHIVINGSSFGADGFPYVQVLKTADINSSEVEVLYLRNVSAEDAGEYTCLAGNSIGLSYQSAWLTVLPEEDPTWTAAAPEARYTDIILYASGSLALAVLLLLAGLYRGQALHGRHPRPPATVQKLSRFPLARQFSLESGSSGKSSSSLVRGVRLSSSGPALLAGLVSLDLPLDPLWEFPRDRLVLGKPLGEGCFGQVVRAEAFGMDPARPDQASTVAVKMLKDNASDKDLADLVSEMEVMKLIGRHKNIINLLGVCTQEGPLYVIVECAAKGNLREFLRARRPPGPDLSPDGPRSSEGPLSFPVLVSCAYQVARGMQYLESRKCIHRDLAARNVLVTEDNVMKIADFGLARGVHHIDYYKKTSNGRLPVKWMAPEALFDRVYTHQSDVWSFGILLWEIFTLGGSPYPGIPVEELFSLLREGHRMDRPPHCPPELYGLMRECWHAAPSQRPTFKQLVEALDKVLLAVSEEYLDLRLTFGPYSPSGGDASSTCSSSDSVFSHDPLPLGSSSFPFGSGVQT

In the case of `C=CC(=O)N[C@H]1CCOC[C@H]1Nc1ncc2cc(-c3c(Cl)c(OC)cc(OC)c3Cl)ccc2n1` [BLU554, reference compound], the IC50 amounted to 13 nM at tyrosine kinase FGFR4, 1480 nM at FGFR1 and 62.7 nM in series [1].
Turning to `C=CC(=O)Nc1cc(N2CCC(N3CCOCC3)CC2)ccc1Nc1ncc2c(n1)-c1cccnc1N(c1c(Cl)c(OC)cc(OC)c1Cl)C2` [Compound 1, N-(2-((6-(2,6-dichloro-3,5-dimethoxyphenyl)-5,6-dihydropyrimido[5,4-c][1,8]naphthyridin-2-yl)amino)-5-(4-morpholinopiperidin-1-yl)phenyl)acrylamide], the results for the IC50 (at tyrosine kinase FGFR4; in series [1]) were 9.4 nM and 6.9 nM, respectively.
On to `C=CC(=O)N[C@H]1CCOC[C@H]1Nc1ncc2c(n1)-c1cccnc1N(c1c(Cl)c(OC)cc(OC)c1Cl)C2` [Compound 2, N-((3S,4S)-3-((6-(2,6-dichloro-3,5-dimethoxyphenyl)-5,6-dihydropyrimido[5,4-c][1,8]naphthyridin-2-yl)amino)tetrahydro-2H-pyran-4-yl)acrylamide], for which the IC50 was determined as 10 nM at tyrosine kinase FGFR4 and 912 nM at FGFR1.
With `C=CC(=O)N[C@H]1CCOC[C@H]1Nc1ncc2c(=O)n(-c3c(Cl)c(OC)cc(OC)c3Cl)c3ncccc3c2n1` [Compound 3, N-((3S,4S)-3-((6-(2,6-dichloro-3,5-dimethoxyphenyl)-5-oxo-5,6-dihydropyrimido[5,4-c][1,8]naphthyridin-2-yl)amino)tetrahydro-2H-pyran-4-yl)acrylamide], in series [1], the IC50 was above 3000 nM.
Consider `C=CC(=O)N[C@H]1CCOC[C@H]1Nc1ncc2c(n1)-c1cc(F)cnc1N(c1c(Cl)c(OC)cc(OC)c1Cl)C2` [Compound 11, N-((3S,4S)-3-((6-(2,6-dichloro-3,5-dimethoxyphenyl)-9-fluoro-5,6-dihydropyrimido[5,4-c][1,8]naphthyridin-2-yl)amino)tetrahydro-2H-pyran-4-yl)acrylamide], for which the IC50 stood at 1.8 nM at tyrosine kinase FGFR4, 1530 nM on FGFR1 and 10.6 nM in series [1].
Consider `C=CC(=O)N[C@H]1CCOC[C@H]1Nc1ncc2c(n1)-c1cc(C)cnc1N(c1c(Cl)c(OC)cc(OC)c1Cl)C2` [Compound 13, N-((3S,4S)-3-((6-(2,6-dichloro-3,5-dimethoxyphenyl)-9-methyl-5,6-dihydropyrimido[5,4-c][1,8]naphthyridin-2-yl)amino)tetrahydro-2H-pyran-4-yl)acrylamide], for which the figures for the 50% inhibitory concentration (IC50) (on tyrosine kinase FGFR4; on FGFR1; in series [1]) were 1 nM, 367 nM and 5.1 nM, respectively. Besides, the “inhibitory rate on tumor volume growth of Hep3B (TGI)” value in series [2] (50 mg/kg) is 73.02%; in series [2] (100 mg/kg) it was 86.26%; in series [2] (200 mg/kg) it was 90.26%. Also, the “inhibitory rate of tumor weight growth (TGI)” value in series [2] (50 mg/kg) came out at 84.76%; in series [2] (100 mg/kg), 92.27%; in series [2] (200 mg/kg), 98.15%. In series [2], the “body weight (routine determination of toxicity)” value was “did not show obvious weight losses”.
Regarding `C=CC(=O)N[C@H]1CCOC[C@H]1Nc1ncc2c(n1)-c1cc(C)cnc1N(c1cc(OC)cc(OC)c1Cl)C2` [Compound 14, N-((3S,4S)-3-((6-(2-chloro-3,5-dimethoxyphenyl)-9-methyl-5,6-dihydropyrimido[5,4-c][1,8]naphthyridin-2-yl)amino)tetrahydro-2H-pyran-4-yl)acrylamide], the IC50 at tyrosine kinase FGFR4 came to 2.6 nM; on FGFR1, 1440 nM; in series [1] it was 18.7 nM.
Regarding `C=CC(=O)N[C@H]1CCOC[C@H]1Nc1ncc2c(n1)-c1ccc(C)nc1N(c1c(Cl)c(OC)cc(OC)c1Cl)C2` [Compound 15, N-((3S,4S)-3-((6-(2,6-dichloro-3,5-dimethoxyphenyl)-8-methyl-5,6-dihydropyrimido[5,4-c][1,8]naphthyridin-2-yl)amino)tetrahydro-2H-pyran-4-yl)acrylamide], the IC50 at tyrosine kinase FGFR4 turned out to be 5.2 nM; on FGFR1, 1000 nM.
In the case of `C=CC(=O)N[C@H]1CCOC[C@H]1Nc1ncc2c(n1)-c1cc(C(F)(F)F)cnc1N(c1c(Cl)c(OC)cc(OC)c1Cl)C2` [Compound 16, N-((3S,4S)-3-((6-(2,6-dichloro-3,5-dimethoxyphenyl)-9-(trifluoromethyl)-5,6-dihydropyrimido[5,4-c][1,8]naphthyridin-2-yl)amino)tetrahydro-2H-pyran-4-yl)acrylamide], the IC50 worked out at 3.6 nM on tyrosine kinase FGFR4, 166 nM on FGFR1 and 14.5 nM in series [1]. In series [2] (50 mg/kg), the “inhibitory rate on tumor volume growth of Hep3B (TGI)” value was determined as 78.37%. In addition, in series [2] (50 mg/kg), the “inhibitory rate of tumor weight growth (TGI)” value is given as 83.85%. For the same molecule, in series [2], the “body weight (routine determination of toxicity)” value is listed as “did not show obvious weight losses”.
With `C=CC(=O)N[C@H]1CCOC[C@H]1Nc1ncc2c(n1)-c1cc(Cl)cnc1N(c1c(Cl)c(OC)cc(OC)c1Cl)C2` [Compound 28, N-((3S,4S)-3-((9-chloro-6-(2,6-dichloro-3,5-dimethoxyphenyl)-5,6-dihydropyrimido[5,4-c][1,8]naphthyridin-2-yl)amino)tetrahydro-2H-pyran-4-yl)acrylamide], the IC50 on tyrosine kinase FGFR4 amounted to 1.8 nM; at FGFR1, 741 nM; in series [1], 9.9 nM.
Regarding `C=CC(=O)N[C@H]1CCOC[C@H]1Nc1ncc2cc(-c3c(Cl)c(OC)cc(OC)c3Cl)c3nncn3c2n1` [Compound 33, N-((3S,4S)-3-((6-(2,6-dichloro-3,5-dimethoxyphenyl)-[1,2,4]triazolo[4′,3′:1,6]pyrido[2,3-d]pyrimidin-2-yl)amino)tetrahydro-2H-pyran-4-yl)acrylamide], the half-inhibitory concentration (IC50) in series [1] was determined as 524 nM.
The same measure, in the same setting: then `C=CC(=O)NC1CCOCC1Nc1ncc2c(=O)n(-c3c(Cl)c(OC)cc(OC)c3Cl)c3ncc(Cl)cc3c2n1` (stereo not shown) [Compound 34, N-(3-((9-chloro-6-(2,6-dichloro-3,5-dimethoxyphenyl)-5-oxo-5,6-dihydropyrimido[5,4-c][1,8]naphthyridin-2-yl)amino)tetrahydro-2H-pyran-4-yl)acrylamide], with 1030 nM.
